From patent publication US10457709B2, “Antimicrobial peptides, their variants and uses” (priority 2015, dated 2019)
Read-outs that look alike come from different tables or passages of the source. Square brackets hold non-standard residues; d marks the D form. Peptide text beside a SMILES is read from it.

Experiments:
[1] = system: MRSA strains (S. aureus COL); test: MIC, synergistic activity with Ertapenem (4 μg/ml); type: cell-based, Staphylococcus aureus; settings: Ertapenem 4 μg/ml; D-form peptide
Description: Minimum inhibition concentrations (MICs) were determined against Escherichia coli (ATCC 25922), Staphylococcus aureus (ATCC 25923), Klebsiella pneumoniae (ATCC 10031) and Pseudomonas aeruginosa (ATCC 27853). Also clinical strains of E. coli, K. pneumoniae, E. cloacae, P. aeruginosa, Serratia marcescens, Proteus mirabilis, S. pneumoniae, Acinetobacter baumannii, A. johnsonii and S. aureus were used for MICs assays. Additionally, clinical strains of yeast including Candida albicans, C. glabrata, C. parapsilosis and C. quillermondiae were used. The susceptibility of these microorganisms to Chain peptides were determined using micro broth dilution assay. Colonies of the respective microorganism from Muller Hinton (MH) agar plates incubated overnight were suspended in MH broth media and final concentration of microorganism was adjusted to 5.0×10^5 cfu/ml. An aliquot of 10 μl of each Chain peptide, or gentamicin, tetracycline as reference antibiotics were added in differing concentrations along with 90 μl of bacterial suspension to 96 well polypropylene plates and incubated at 37° C. for 20 to 24 hours. Concentrations of Chain peptides and reference antibiotics ranged from 0.125 to 128 μg/ml and the MICs were recorded as the lowest concentration with no visual growth of bacteria. Similarly, antifungal MICs were tested in Potato dextrose broth.
Peptides Chain 104, Chain 105, Chain 201, Chain 308, Chain 310 were tested against antibiotic-sensitive strains of S. aureus RN4220 and methicillin resistant strains of S. aureus COL (MRSA). Chain peptides comprising of either L- or D-form amino acids were tested against these bacteria, and the D-form peptides were found have better activity compared to L-form (Table 6). Synergistic activity of chain peptides along with Ertapenem (4 μg/ml) was tested to know whether it will influence the activity against MRSA strains. […] Chain 310 has the best antibacterial activity against the MRSA strains with a MIC of 0.06 & 0.03 μg/ml along with Ertapenem (4 μg/ml) for both forms of L and D-peptides (Table 6).

[2] = system: Escherichia coli (ATCC 25922); type: cell-based; settings: Peptides 50 μg, Gentamycin 5 μg, diameter including the wells
Description: (§1) The radial diffusion assay (RDA) was carried out as described by Andersen et al. (2010). Briefly, 30 ml of 1/10 Muller-Hinton broth (MHB) supplemented with 1% agarose and 5.0×10^5 CFU/ml S. aureus or E. coli or K. pneumoniae, P. aeruginosa cells was poured into a single-well omnitray (Nunc) and overlaid with a TSP 96-well plate. […] The peptides were also tested against Fusarium oxysporum and Verticillium dahliae, for which ⅓ potato dextrose agarose was used. To test the synergistic effect of peptides, each peptide was mixed in equimolar concentrations. Mix1 (met1-12), Mix2 (met3, 4 and 5), Mix3 (met8, 9 and 10), Mix4 (met11, 12) and Mix5 (8, 9, 10, 11, 12) were prepared and tested against E. coli and S. aureus. Gentamicin and vancomycin were included as positive controls for bacteria and amphotericin B was used as the control for fungi.
(§2) By using rational design techniques, we have designed variants of peptides by incorporating or replacing various amino acids in the original peptides. Thus, we have designed and modified Chain 100, Chain 200 and Chain 300 with tryptophan (W), arginine (R) and lysine (K) at various positions to improve antimicrobial activity (FIGS. 4a-c and 5a-c). In some peptides we have also used other amino acids such as Leucine (L), Cysteine (C), Isoleucine (I), Phenylalanine (F) and Alanine (A). For synthesis, 32 variants and 3 original peptides were selected based on the various parameters such as positive charge, aliphatic index and instability index. Peptides variants were tested by using radial diffusion assay against Escherichia coli (ATCC 25922), Staphylococcus aureus (ATCC 25923), Klebsiella pneumoniae (ATCC 10031) and Pseudomonas aeruginosa (ATCC 27853) (FIGS. 6a-c). The zone of inhibition ranged between 10-18 mm for Escherichia coli and Staphylococcus aureus, 6-18 mm & 8-18 mm for Pseudomonas aeruginosa and Klebsiella pneumonia respectively (Table 2). For Gentamicin it was between 22-24 mm. Antifungal activity was tested for promising antibacterial peptides (Chains 104, 105, 109, 201, 204, 306, 307, 308, 310) against Aspergillus flavus (DSM 1959) and Penicillium chrysogenum (DSM 1075). All these peptides has activity at a concentration of 20 μg, Amphotericin B was used as a positive control at 20 μg (FIG. 7).

[3] = system: Klebsiella pneumoniae (ATCC 10031); type: cell-based; settings: Peptides 50 μg, Gentamycin 5 μg, diameter including the wells
Description: as §1, §2

[4] = system: Pseudomonas aeruginosa (ATCC 27853); type: cell-based; settings: Peptides 50 μg, Gentamycin 5 μg, diameter including the wells
Description: as §1, §2

[5] = system: Staphylococcus aureus (ATCC 25923); type: cell-based; settings: Peptides 50 μg, Gentamycin 5 μg, diameter including the wells
Description: as §1, §2

[6] = system: Escherichia coli (ATCC 25922); test: microbe, parasite or virus in culture; type: cell-based
Summary of the method: (§3)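 Susceptibility is determined by micro broth dilution with a bacterial inoculum of 5.0×10^5 cfu/ml in Mueller-Hinton broth. The endpoint is absence of visible growth following 20–24 h incubation at 37° C.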

[7] = system: Klebsiella pneumoniae (ATCC 10031); test: microbe, parasite or virus in culture; type: cell-based
Summary of the method: as §3

[8] = system: Pseudomonas aeruginosa (ATCC 27853); test: microbe, parasite or virus in culture; type: cell-based
Summary of the method: as §3

[9] = system: Staphylococcus aureus (ATCC 25923); test: microbe, parasite or virus in culture; type: cell-based
Summary of the method: as §3

Row | Molecule | MIC against MRSA strains along with Ertapenem [1] | Inhibition zone, Escherichia coli [2] | Inhibition zone, Escherichia coli ([2]; listed as Gentamycin) | Inhibition zone, Klebsiella pneumoniae [3] | Inhibition zone, Klebsiella pneumoniae ([3]; listed as Gentamycin) | Inhibition zone, Pseudomonas aeruginosa [4] | Inhibition zone, Pseudomonas aeruginosa ([4]; listed as Gentamycin) | Inhibition zone, Staphylococcus aureus [5] | Inhibition zone, Staphylococcus aureus ([5]; listed as Gentamycin) | Minimum inhibitory concentration, Escherichia coli (ATCC 25922) [6] | Minimum inhibitory concentration, Klebsiella pneumoniae (ATCC 10031) [7] | Minimum inhibitory concentration, Pseudomonas aeruginosa (ATCC 27853) [8] | Minimum inhibitory concentration, Staphylococcus aureus (ATCC 25923) [9]
1 | CC(C)C[C@@H](NC(=O)[C@@H](CCCCN)NC(=O)[C@@H](CCCCN)NC(=O)[C@@H](Cc1ccccc1)NC(=O)[C@@H](CC(C)C)NC(=O)[C@@H](Cc1c[nH]c2ccccc12)NC(=O)[C@@H](CCCNC(=N)N)NC(=O)[C@@H](Cc1c[nH]c2ccccc12)NC(=O)[C@@H](CCCCN)NC(=O)[C@@H](CCCNC(=N)N)NC(=O)[C@H](N)CCCCN)C(=O)O [Chain310D] (H-[dK][dR][dK][dW][dR][dW][dL][dF][dK][dK][dL]-OH) | 0.03 µg/mL | – | – | – | – | – | – | – | – | – | – | – | –
2 | Gentamicin [reference compound] | – | 22-24 mm | 22 mm | 22-24 mm | 22 mm | 22-24 mm | 24 mm | 22-24 mm | 24 mm | 1 µg/mL | 0.25 µg/mL | 0.25 µg/mL | 0.25 µg/mL
